Literature values in patent publication US5087633A (G. D. Searle & Co., priority 1989, dated 1992).

Conditions: in vivo; cited from earlier work

**Q.** For CCCCCNCC(N)=O [milacemide], which “Increase of whole brain content of glycine” value is on record?
**A.** 30%
